Reference: patent US7473669B2, “Substituted 4,5-dihydro-1,2,4-triazin-6-ones, 1,2,4-triazin-6-ones, and their use as fungicides” (priority 2005, dated 2009)
Read-outs that look alike come from different tables or passages of the source.

What was measured:
Format in all cases: in vivo
Colletotricum lagenarium = assay: Cucumber Anthracnose greenhouse one-day protectant test; details: Cucumis sativus, 24 h, read-out: COLLLA percent control rating
Erysiphe cichoracaerum = assay: Cucumber Powdery Mildew greenhouse one-day protectant test; details: 24 h, read-out: ERYSCI percent control rating
Leptosphaeria nodorum = assay: Glume Blotch of Wheat greenhouse one-day protectant test; details: Parastagonospora nodorum, 24 h, read-out: LEPTNO percent control rating
Phytophthora infestans = assay: whole plant or invertebrate; details: in Solanum lycopersicum, 24 h, read-out: PHYTIN percent control rating, tomato plants, one-day protectant test, 200 ppm application rate
[1] = tested on: Puccinia recondita tritici; assay: Leaf Rust of Wheat greenhouse one-day protectant test; details: 24 h, read-out: PUCCRT percent control rating
Pyricularia oryzae = assay: whole plant or invertebrate; details: 24 h, read-out: PYRIOR percent control rating
[2] = cucumber plants, one-day protectant test, 200 ppm application rate
[3] = wheat plants, one-day protectant test, 200 ppm application rate

O=C1C(SC2CCCCC2)NC(c2cccc(C(=NOCc3ccccc3)c3ccccc3)c2)=NN1CC(F)(F)F (stereo not shown) [Compound 57]
pest or weed control at 200 ppm (Colletotricum lagenarium; [2]): 0 to 49%
pest or weed control at 200 ppm (Erysiphe cichoracaerum; [2]): 0 to 49%
pest or weed control at 200 ppm (Leptosphaeria nodorum; [3]): 0 to 49%
pest or weed control at 200 ppm (Phytophthora infestans): 0 to 49%
pest or weed control at 200 ppm [1, 3]: 0 to 49%
pest or weed control at 200 ppm (Pyricularia oryzae): 0 to 49%

CCCCn1nc(-c2cc(-c3ccsc3)cc(-c3ccsc3)c2)ncc1=O [Compound 81]
pest or weed control at 200 ppm (Colletotricum lagenarium; [2]): 0 to 49%
pest or weed control at 200 ppm (Erysiphe cichoracaerum; [2]): 0 to 49%
pest or weed control at 200 ppm (Leptosphaeria nodorum; [3]): 80 to 100%
pest or weed control at 200 ppm (Phytophthora infestans): 0 to 49%
pest or weed control at 200 ppm [1, 3]: 0 to 49%
pest or weed control at 200 ppm (Pyricularia oryzae): 0 to 49%

O=C1CNC(c2ccc(Cl)c(Cl)c2)=NN1CO [Compound 9]
pest or weed control at 200 ppm (Colletotricum lagenarium; [2]): 0 to 49%
pest or weed control at 200 ppm (Erysiphe cichoracaerum; [2]): 0 to 49%
pest or weed control at 200 ppm (Leptosphaeria nodorum; [3]): 80 to 100%
pest or weed control at 200 ppm (Phytophthora infestans): 0 to 49%
pest or weed control at 200 ppm [1, 3]: 50 to 79%
pest or weed control at 200 ppm (Pyricularia oryzae): 0 to 49%

O=C1CNC(c2cccc(C(=NOCc3ccccc3)c3ccccc3)c2)=NN1CC(F)(F)F [Compound 76]
pest or weed control at 200 ppm (Colletotricum lagenarium; [2]): 0 to 49%
pest or weed control at 200 ppm (Erysiphe cichoracaerum; [2]): 0 to 49%
pest or weed control at 200 ppm (Leptosphaeria nodorum; [3]): 50 to 79%
pest or weed control at 200 ppm (Phytophthora infestans): 0 to 49%
pest or weed control at 200 ppm [1, 3]: 50 to 79%
pest or weed control at 200 ppm (Pyricularia oryzae): 80 to 100%

Cc1cc(C)cc(C2=NN(CC(F)(F)F)C(=O)C(SCC(=O)O)N2)c1 (stereo not shown) [Compound 42]
pest or weed control at 200 ppm (Colletotricum lagenarium; [2]): 80 to 100%
pest or weed control at 200 ppm (Erysiphe cichoracaerum; [2]): 0 to 49%
pest or weed control at 200 ppm (Leptosphaeria nodorum; [3]): 80 to 100%
pest or weed control at 200 ppm (Phytophthora infestans): 0 to 49%
pest or weed control at 200 ppm [1, 3]: 80 to 100%
pest or weed control at 200 ppm (Pyricularia oryzae): 80 to 100%

O=c1cnc(-c2ccc(N3CCOCC3)cc2)nn1CC(F)(F)F [Compound 77]
pest or weed control at 200 ppm (Colletotricum lagenarium; [2]): 80 to 100%
pest or weed control at 200 ppm (Erysiphe cichoracaerum; [2]): 50 to 79%
pest or weed control at 200 ppm (Leptosphaeria nodorum; [3]): 50 to 79%
pest or weed control at 200 ppm (Phytophthora infestans): 50 to 79%
pest or weed control at 200 ppm [1, 3]: 0 to 49%
pest or weed control at 200 ppm (Pyricularia oryzae): 80 to 100%

O=C(c1ccccc1)c1cccc(C2=NN(CC(F)(F)F)C(=O)C(SC3CCCCC3)N2)c1 (stereo not shown) [Compound 54]
pest or weed control at 200 ppm (Colletotricum lagenarium; [2]): 50 to 79%
pest or weed control at 200 ppm (Erysiphe cichoracaerum; [2]): 0 to 49%
pest or weed control at 200 ppm (Leptosphaeria nodorum; [3]): 80 to 100%
pest or weed control at 200 ppm (Phytophthora infestans): 0 to 49%
pest or weed control at 200 ppm [1, 3]: 50 to 79%
pest or weed control at 200 ppm (Pyricularia oryzae): 80 to 100%

CCCCN1N=C(c2ccc(Oc3cccnc3)cc2)NCC1=O [Compound 16]
pest or weed control at 200 ppm (Colletotricum lagenarium; [2]): 0 to 49%
pest or weed control at 200 ppm (Erysiphe cichoracaerum; [2]): 0 to 49%
pest or weed control at 200 ppm (Leptosphaeria nodorum; [3]): 0 to 49%
pest or weed control at 200 ppm (Phytophthora infestans): 0 to 49%
pest or weed control at 200 ppm [1, 3]: 80 to 100%
pest or weed control at 200 ppm (Pyricularia oryzae): 0 to 49%

O=C1CNC(c2ccc(Cl)c(Cl)c2)=NN1C(=O)C(F)(F)F [Compound 10]
pest or weed control at 200 ppm (Colletotricum lagenarium; [2]): 50 to 79%
pest or weed control at 200 ppm (Erysiphe cichoracaerum; [2]): 0 to 49%
pest or weed control at 200 ppm (Leptosphaeria nodorum; [3]): 50 to 79%
pest or weed control at 200 ppm (Phytophthora infestans): 0 to 49%
pest or weed control at 200 ppm [1, 3]: 0 to 49%
pest or weed control at 200 ppm (Pyricularia oryzae): 80 to 100%

O=C1CNC(c2cc(Br)cc(-c3ccsc3)c2)=NN1CCc1ccccc1 [Compound 69]
pest or weed control at 200 ppm (Colletotricum lagenarium; [2]): 0 to 49%
pest or weed control at 200 ppm (Erysiphe cichoracaerum; [2]): 0 to 49%
pest or weed control at 200 ppm (Leptosphaeria nodorum; [3]): 50 to 79%
pest or weed control at 200 ppm (Phytophthora infestans): 0 to 49%
pest or weed control at 200 ppm [1, 3]: 0 to 49%
pest or weed control at 200 ppm (Pyricularia oryzae): 50 to 79%

N#CCCN1N=C(c2cccc(OCc3ccccc3)c2)NCC1=O [Compound 18]
pest or weed control at 200 ppm (Colletotricum lagenarium; [2]): 50 to 79%
pest or weed control at 200 ppm (Erysiphe cichoracaerum; [2]): 0 to 49%
pest or weed control at 200 ppm (Leptosphaeria nodorum; [3]): 50 to 79%
pest or weed control at 200 ppm (Phytophthora infestans): 0 to 49%
pest or weed control at 200 ppm [1, 3]: 80 to 100%
pest or weed control at 200 ppm (Pyricularia oryzae): 50 to 79%

O=C1CNC(c2cccc(OCc3ccccc3)c2)=NN1Cc1ccccc1 [Compound 20]
pest or weed control at 200 ppm (Colletotricum lagenarium; [2]): 0 to 49%
pest or weed control at 200 ppm (Erysiphe cichoracaerum; [2]): 0 to 49%
pest or weed control at 200 ppm (Leptosphaeria nodorum; [3]): 50 to 79%
pest or weed control at 200 ppm (Phytophthora infestans): 0 to 49%
pest or weed control at 200 ppm [1, 3]: 80 to 100%
pest or weed control at 200 ppm (Pyricularia oryzae): 80 to 100%

O=C1C(SC2CCCCC2)NC(c2cc(Br)cc(Br)c2)=NN1CC(F)(F)F (stereo not shown) [Compound 44]
pest or weed control at 200 ppm (Colletotricum lagenarium; [2]): 80 to 100%
pest or weed control at 200 ppm (Erysiphe cichoracaerum; [2]): 0 to 49%
pest or weed control at 200 ppm (Leptosphaeria nodorum; [3]): 80 to 100%
pest or weed control at 200 ppm (Phytophthora infestans): 80 to 100%
pest or weed control at 200 ppm [1, 3]: 80 to 100%
pest or weed control at 200 ppm (Pyricularia oryzae): 80 to 100%

Cc1cc(C)cc(C2=NN(CCOc3ccccc3)C(=O)CN2)c1 [Compound 64]
pest or weed control at 200 ppm (Colletotricum lagenarium; [2]): 50 to 79%
pest or weed control at 200 ppm (Erysiphe cichoracaerum; [2]): 0 to 49%
pest or weed control at 200 ppm (Leptosphaeria nodorum; [3]): 80 to 100%
pest or weed control at 200 ppm (Phytophthora infestans): 0 to 49%
pest or weed control at 200 ppm [1, 3]: 80 to 100%
pest or weed control at 200 ppm (Pyricularia oryzae): 80 to 100%

Cc1cc(C)cc(-c2ncc(=O)n(Cc3c(F)c(F)c(F)c(F)c3F)n2)c1 [Compound 85]
pest or weed control at 200 ppm (Colletotricum lagenarium; [2]): 80 to 100%
pest or weed control at 200 ppm (Erysiphe cichoracaerum; [2]): 0 to 49%
pest or weed control at 200 ppm (Leptosphaeria nodorum; [3]): 80 to 100%
pest or weed control at 200 ppm (Phytophthora infestans): 0 to 49%
pest or weed control at 200 ppm [1, 3]: 80 to 100%
pest or weed control at 200 ppm (Pyricularia oryzae): 80 to 100%

O=C1CNC(c2ccc(N3CCOCC3)cc2)=NN1CC(F)(F)F [Compound 58]
pest or weed control at 200 ppm (Colletotricum lagenarium; [2]): 0 to 49%
pest or weed control at 200 ppm (Erysiphe cichoracaerum; [2]): 50 to 79%
pest or weed control at 200 ppm (Leptosphaeria nodorum; [3]): 0 to 49%
pest or weed control at 200 ppm (Phytophthora infestans): 0 to 49%
pest or weed control at 200 ppm [1, 3]: 0 to 49%
pest or weed control at 200 ppm (Pyricularia oryzae): 80 to 100%

O=C1CNC(c2cccc(Oc3nnnn3-c3ccccc3)c2)=NN1CC(F)(F)F [Compound 28]
pest or weed control at 200 ppm (Colletotricum lagenarium; [2]): 0 to 49%
pest or weed control at 200 ppm (Erysiphe cichoracaerum; [2]): 0 to 49%
pest or weed control at 200 ppm (Leptosphaeria nodorum; [3]): 50 to 79%
pest or weed control at 200 ppm (Phytophthora infestans): 0 to 49%
pest or weed control at 200 ppm [1, 3]: 0 to 49%
pest or weed control at 200 ppm (Pyricularia oryzae): 50 to 79%

O=C1CNC(c2cccc(OCc3ccccc3)c2)=NN1CCF [Compound 19]
pest or weed control at 200 ppm (Colletotricum lagenarium; [2]): 0 to 49%
pest or weed control at 200 ppm (Erysiphe cichoracaerum; [2]): 0 to 49%
pest or weed control at 200 ppm (Leptosphaeria nodorum; [3]): 50 to 79%
pest or weed control at 200 ppm (Phytophthora infestans): 0 to 49%
pest or weed control at 200 ppm [1, 3]: 80 to 100%
pest or weed control at 200 ppm (Pyricularia oryzae): 50 to 79%

Cc1cc(C)cc(C2=NN(CC(F)(F)F)C(=O)C(SC3CCCCC3)N2)c1 (stereo not shown) [Compound 37]
pest or weed control at 200 ppm (Colletotricum lagenarium; [2]): 80 to 100%
pest or weed control at 200 ppm (Erysiphe cichoracaerum; [2]): 0 to 49%
pest or weed control at 200 ppm (Leptosphaeria nodorum; [3]): 80 to 100%
pest or weed control at 200 ppm (Phytophthora infestans): 0 to 49%
pest or weed control at 200 ppm [1, 3]: 80 to 100%
pest or weed control at 200 ppm (Pyricularia oryzae): 80 to 100%

Cc1cc(C)cc(C2=NN(CCO)C(=O)CN2)c1 [Compound 2]
pest or weed control at 200 ppm (Colletotricum lagenarium; [2]): 0 to 49%
pest or weed control at 200 ppm (Erysiphe cichoracaerum; [2]): 0 to 49%
pest or weed control at 200 ppm (Leptosphaeria nodorum; [3]): 0 to 49%
pest or weed control at 200 ppm (Phytophthora infestans): 0 to 49%
pest or weed control at 200 ppm [1, 3]: 0 to 49%
pest or weed control at 200 ppm (Pyricularia oryzae): 80 to 100%

O=c1cnc(-c2cc(Cl)cc(Cl)c2)nn1CCOc1ccccc1 [Compound 87]
pest or weed control at 200 ppm (Colletotricum lagenarium; [2]): 0 to 49%
pest or weed control at 200 ppm (Erysiphe cichoracaerum; [2]): 0 to 49%
pest or weed control at 200 ppm (Leptosphaeria nodorum; [3]): 0 to 49%
pest or weed control at 200 ppm (Phytophthora infestans): 0 to 49%
pest or weed control at 200 ppm [1, 3]: 0 to 49%
pest or weed control at 200 ppm (Pyricularia oryzae): 0 to 49%

O=c1cnc(-c2cccc(/C=C\c3ccccc3)c2)nn1CC(F)(F)F [Compound 89]
pest or weed control at 200 ppm (Colletotricum lagenarium): 50 to 79%
pest or weed control at 200 ppm (Erysiphe cichoracaerum): 0 to 49%
pest or weed control at 200 ppm (Leptosphaeria nodorum): 80 to 100%
pest or weed control at 200 ppm (Phytophthora infestans): 0 to 49%
pest or weed control at 200 ppm [1]: 80 to 100%
pest or weed control at 200 ppm (Pyricularia oryzae): 80 to 100%

CC(=O)OCN1N=C(c2ccc(Cl)c(Cl)c2)NCC1=O [Compound 14]
pest or weed control at 200 ppm (Colletotricum lagenarium; [2]): 0 to 49%
pest or weed control at 200 ppm (Erysiphe cichoracaerum; [2]): 0 to 49%
pest or weed control at 200 ppm (Leptosphaeria nodorum; [3]): 0 to 49%
pest or weed control at 200 ppm (Phytophthora infestans): 0 to 49%
pest or weed control at 200 ppm [1, 3]: 50 to 79%
pest or weed control at 200 ppm (Pyricularia oryzae): 0 to 49%

O=C1C(SC2CCCCC2)NC(c2ccc(F)c(-c3ccccc3)c2)=NN1CC(F)(F)F (stereo not shown) [Compound 48]
pest or weed control at 200 ppm (Erysiphe cichoracaerum; [2]): 0 to 49%
pest or weed control at 200 ppm (Leptosphaeria nodorum; [3]): 80 to 100%
pest or weed control at 200 ppm [1, 3]: 80 to 100%
pest or weed control at 200 ppm (Pyricularia oryzae): 80 to 100%
